The values below come from patent US8592446B2, “[1,10]-phenanthroline derivatives for the treatment of neurodegenerative or haematological diseases” (Noscira, S.A., priority 2007, dated 2013).

Type in all cases: cell-based
Data set [1] relates to SH-SY5Y human neuroblastoma cells. Briefly: Toxicity: LDH activity release in SH-SY5Y cells. To be noted: 24 h; for Maximum concentration tested for toxicity: increasing concentrations from 1 μM up to 1 mM. On the procedure:
The potential effects on cell viability of the assayed compounds are assayed in SH-SY5Y human neuroblastoma cells, by quantification of Lactate dehydrogenase (LDH) activity release. SH-SY5Y human neuroblastoma cells are seeded into 96-well culture plates at 10^4 cells/well. The medium is then removed and the cells incubated with different concentrations of the compounds during 24 h. The compounds are tested at increasing concentrations starting from 1 μM, in fresh culture medium, in order to find the minimum concentration at which the compounds are toxic, up to a maximum of 1 mM. After 24 h, the medium is removed and cells attached to the bottom of the well are lysed by adding 50 μl of Krebs-Hepes; Triton X-100 1% during 5 minutes at room temperature. For LDH release quantification, the Roche cytotoxicity detection kit (Cat.
No. 11 644 793 001) is used. The LDH activity is measured by its absorbance at 492 nm with reference wavelength 620 nm.
In Table 1, for each compound the maximum concentration at which toxicity was tested is indicated in the second column. In the third column, it is indicated whether at this maximum concentration the compound was toxic or not. All the compounds, with the exception of Compound 3, resulted non-toxic at the concentration for which activity was found, in most of the cases even at a 1000-fold concentration. Thus, the compounds may be considered non-toxic.

Data set [2] has the same test system. Kind of data set: Protection against hydrogen peroxide-induced cell death (LDH). Conditions: Homo sapiens, SH-SY5Y, compound 1 h before H2O2 100 μM, 24 h, read-out: Protect. H2O2 (minimum concentration for which protection was determined). On the procedure:
The aim of this assay is to determine the neuroprotective effect of the compounds of formula (I), when human neuroblastoma cells are exposed to oxidative stress induced by hydrogen peroxide, which is highly deleterious to the cell and its accumulation causes oxidation of cellular targets such as DNA, proteins, and lipids leading to mutagenesis and cell death.
SH-SY5Y human neuroblastoma cells are seeded into 96-well culture plate at a density of 10^4 cells/well. Cells are exposed to different concentrations of the compound one hour before the treatment with H2O2 100 μM during 24 h. 5 mM N-acetylcysteine (NAC), a known anti-oxidant agent was used as a positive control, and preincubated 1 hour before the treatment with H2O2. After 24 h, the medium is removed and cells attached to the bottom of the well are lysed by adding 50 μl of Triton X-100 1% in Krebs-Hepes during 5 minutes at room temperature. For LDH release quantification, Roche cytotoxicity detection kit (Cat. No. 11 644 793 001) was used.

The test system is the same in data set [3]. Briefly: Protection against 6-OHDA-induced cell death, condition A (10% foetal bovine serum). To be noted: preincubated 2 hours, 6-OHDA 75 μM 16 hours, read-out: Protect. 6-OHDA (+ FBS) (minimum concentration with neuroprotective effect). The text has this:
(§1) The aim of this experiment is to determine the protective effect of the compounds of formula (1) against the toxicity caused by 6-OHDA. This toxin induces a cell death similar to which occurs in Parkinson's disease, destroying dopaminergic neurons (“MPTP and 6-hydroxydopamine-induced neurodegeneration as models for Parkinson's disease: neuroprotective strategies”; Grunblatt E, et al.; J Neurol. 2000 Apr; 247 Suppl 2:II95-102).
(§2) Two or three days before the experiment, the SH-SY5Y human neuroblastoma cells are seeded into 96-well culture plate at a density of 10^4 cells/well. Cells are exposed to the treatment with 6-OHDA and, finally, cell death is measured by LDH quantification. As positive control we used NAC.
• A) NAC and the compound of formula (I) are preincubated during 2 hours before the treatment with 6-OHDA 75 μM during 16 hours. The assay is performed in medium containing 10% Foetal bovine serum.
(§3) For each compound the minimum concentration of compound of formula (I) at which a neuroprotective effect is shown.

Data set [4] shares this test system. Briefly: Protection against 6-OHDA-induced cell death, condition B (no fetal bovine serum). To be noted: preincubated 1 hour, 6-OHDA 50 μM 24 hours, read-out: Protect. 6-OHDA (−FBS) (minimum concentration with neuroprotective effect).
From the text: as §1, §2
• B) NAC and the compound of formula (I) are preincubated during 1 hour before the treatment with 6-OHDA 50 μM during 24 hours. The assay is performed in a medium without any fetal bovine serum.
as §3

Another data set concerns SH-SY5Y cells. Kind of data set: Neuroprotection against Aβ25-35 toxicity (LDH assay). Conditions: Homo sapiens, pre-treated 1 hour, 200 μM Aβ25-35 24 hours, read-out: Protect. beta-Amyloid25-35 (minimum concentration showing neuroprotection). On the procedure:
In order to evaluate potential neuroprotection of compounds, SH-SY5Y cells, cultured in 96-well plates, were pre-treated for 1 hour with the compound at different concentrations and then exposed 24 hours to 200 μM Aβ25-35 (Neosystem) to induce extensive oxidative stress and cell death. The ability of the compound of protecting against this toxicity is then evaluated by measuring intracellular LDH, using the colorimetric LDH assay.
It is widely accepted that the neurotoxic activity of Aβ resides within amino acids 25-35 (see e.g. Yankner B A et al., (1990) Neurotrophic and neurotoxic effects of amyloid β protein: reversal by tachykinin neuropeptides; Science 250:279-282).

For data set [5], the system named is Aβ (1-40) secretion by CHO7W cells (stably transfected with human APP751 wt cDNA). Briefly: Inhibition of Aβ(1-40) secretion (ELISA, cellular supernatants). To be noted: Aβ 1-40 ELISA; for minimal effective concentration: Homo sapiens, CHO-7W, read-out: Inhibition secretion beta-amyloid (minimum concentration). From the text:
To quantitate Aβ secretion ELISA-based method was used. The assay consists in detection of antigen by selective monoclonal anti-Aβ-antibodies at two different epitopes forming a “Sandwich-complex”, that is detected by colorimetric measure due to the binding of a secondary antibody conjugated with peroxidase that catalyses the conversion of a substrate or chromogen, TMB, into a coloured product, directly proportional to the peptide quantity in the sample. The Aβ production has been analyzed by ELISA, using a colorimetric commercial kit: Immunoassay Kit Human β Amyloid 1-40 (Biosource).
Aβ (1-40) were quantified from cellular supernatants. An APP-transfected cell line has been employed for the experiments: CHO7W (stably transfected with human APP751 wt cDNA). The cells were grown in a culture medium consisting of DMEM supplemented with 2% Fetal bovine serum, 1% penicillin-streptomycin, 1% L-glutamine and 200 μg/ml G418. Cells are seeded in 96-well culture microplate, at 5000 cells/well and treatment with different compounds at different concentrations is performed 24 hour after seeding.
OM99-2 (H-5108, Bachem), a BACE inhibitor, was used as Aβ secretion reduction positive control in all the Aβ secretion studies. The cells were treated with this compound at 3 μM concentration, culture media were collected at 24 hours.
For orientation: In an ELISA, binding on a coated surface is turned into a signal by an enzyme label.

Structures are written as SMILES.

`COc1cc(C=NO)nc2c1ccc1cccnc12` [Compound 1, 4-Methoxy-[1,10]phenanthroline-2-carbaldehyde oxime]: the “Maximum concentration tested for toxicity” value in data set [1] was determined as 1000 µM. Further, the “Toxic at maximum concentration tested (Yes/No)” value (“Toxic … (Yes/No)” for short) in data set [1] (at 1 mM) is “Yes”. In addition, the minimal effective concentration in data set [2] amounted to 0.05 µM; in data set [3], 0.5 µM; in data set [4], 0.5 µM; in the data set on SH-SY5Y cells, 5 µM. The “Inhibition secretion beta-amyloid (minimum concentration)” value in data set [5] was 0.01 mM.

With `COC(=O)CSc1cc(C=NO)nc2c1ccc1cccnc12` [Compound 14, [2-(Hydroxyimino-methyl)-[1,10]phenanthrolin-4-ylsulfanyl]-acetic acid methyl ester], the “Maximum concentration tested for toxicity” value in data set [1] turned out to be 1000 µM. In data set [1] (at 1000 μM), the “Toxic … (Yes/No)” value is given as “Yes”. Besides, the minimal effective concentration in data set [2] came to 0.05 µM; in data set [3], 0.5 µM; in data set [4], 0.5 µM; with SH-SY5Y cells, 10 µM; in data set [5], 0.01 µM.

Turning to `O=C(O)CSc1cc(C=NO)nc2c1ccc1cccnc12` [Compound 16, [2-(Hydroxyimino-methyl)-[1,10]phenanthrolin-4-ylsulfanyl]-acetic acid], the “Maximum concentration tested for toxicity” value in data set [1] is 10 µM. Besides, in data set [1] (at 10 μM), the “Toxic … (Yes/No)” value is listed as “Yes”. Also, the minimal effective concentration in data set [2] came out at 0.05 µM; in data set [3], 0.5 µM; in data set [4], 10 µM; in the data set on SH-SY5Y cells it was 5 µM; in data set [5], 1 µM.

Turning to `ON=Cc1cc(SCC(F)(F)F)c2ccc3cccnc3c2n1` [Compound 13, 4-(2,2,2-Trifluoro-ethylsulfanyl)-[1,10]phenanthroline-2-carbaldehyde oxime], the “Maximum concentration tested for toxicity” value in data set [1] came to 1000 µM. Besides, in data set [1] (at 1000 μM), the “Toxic … (Yes/No)” value is reported as “No”. For the same compound, the minimal effective concentration in data set [2] turned out to be 0.5 µM; in data set [3] it was 0.5 µM; in data set [4], 5 µM; in the data set on SH-SY5Y cells, 5 µM; in data set [5], 10 µM.
